Series [1] can be described thus: Cmax in HIV-infected Thai pregnant women at 400 mg, po bid initiated intrapartum in combination with 100 mg, po bid ritonavir measured within 72 hrs postpartum. Format: ADME, organism-based. Also on record: dose 400 mg, route oral. The settings on record: female, human, in vivo.
Series [2] is described as follows: AUC (0 to 12 hrs) in HIV-infected Thai pregnant women at 400 mg, po bid initiated intrapartum in combination with 100 mg, po bid ritonavir measured within 72 hrs postpartum. Format: ADME, organism-based. On the set-up: time < 12 hr, dose 400 mg, route oral. The settings on record: female, human, plasma.
Series [3] can be described thus: Tmax in HIV-infected Thai pregnant women at 400 mg, po bid initiated intrapartum in combination with 100 mg, po bid ritonavir measured within 72 hrs postpartum. Format: ADME, organism-based. The settings on record: female, human, in vivo.
The nature of series [4]: Drug level in HIV-infected Thai pregnant women serum at 400 mg, po bid initiated intrapartum in combination with 100 mg, po bid ritonavir measured 2 hrs post last dose. It is filed as ADME, organism-based. The settings on record: female, human, read-out: Drug uptake.
Series [5] is described as follows: Drug level in HIV-infected Thai pregnant women serum at 400 mg, po bid initiated intrapartum in combination with 100 mg, po bid ritonavir measured 4 hrs post last dose. Format: ADME, organism-based. Particulars: female, human, read-out: Drug uptake.
A short description of series [6]: Drug level in HIV-infected Thai pregnant women serum at 400 mg, po bid initiated intrapartum in combination with 100 mg, po bid ritonavir measured 12 hrs post last dose. It is filed as ADME, organism-based. The settings on record: female, human, read-out: Drug uptake.
Series [7] concerns Serum. In words: Drug level in HIV-infected Thai pregnant women serum before intrapartum initiation of 400 mg, po bid in combination with 100 mg, po bid ritonavir. The settings on record: human, in vivo. It is filed as ADME, organism-based.
A short description of series [8]: Drug level in HIV-infected Thai pregnant women serum at 400 mg, po bid initiated intrapartum administered for 30 days in combination with 100 mg, po bid ritonavir measured before administering last dose. Format: ADME, organism-based. Particulars: female, human, read-out: Drug uptake.
The nature of series [9]: Drug level in HIV-infected Thai pregnant women serum at 400 mg, po bid initiated intrapartum administered for 30 days in combination with 100 mg, po bid ritonavir measured 2 hrs post last dose. It is filed as ADME, organism-based. The settings on record: female, human, read-out: Drug uptake.
Series [10] can be described thus: Drug level in HIV-infected Thai pregnant women serum at 400 mg, po bid initiated intrapartum administered for 30 days in combination with 100 mg, po bid ritonavir measured 4 hrs post last dose. Format: ADME, organism-based. Particulars: female, human, read-out: Drug uptake.
Series [11] deals with Serum. In words: Ratio of drug level before intrapartum initiation to 30 days pre-last dose of HIV-infected Thai pregnant women serum at 400 mg, po bid in combination with 100 mg, po bid ritonavir. Format: ADME, organism-based. The settings on record: human, in vivo, 720 h.
In series [12] the test system is Serum. In words: Ratio of drug level in 2 hrs to 30 days post last dose of HIV-infected Thai pregnant women serum at 400 mg, po bid initiated intrapartum in combination with 100 mg, po bid ritonavir. It is filed as ADME, organism-based. The settings on record: human, in vivo.
Series [13] relates to Serum. In words: Ratio of drug level in 4 hrs to 30 days post last dose of HIV-infected Thai pregnant women serum at 400 mg, po bid initiated intrapartum in combination with 100 mg, po bid ritonavir. It is filed as ADME, organism-based. The settings on record: human, in vivo.
Series [14] has as its system Homo sapiens. In words: Toxicity in HIV-infected Thai pregnant women assessed as adverse effect at 400 mg, po bid initiated intrapartum administered for 30 days in combination with 100 mg, po bid ritonavir. Particulars: in vivo, 720 h. It is filed as organism-based.
Series [15] is described as follows: Cmax in HIV-infected Thai pregnant women at 100 mg, po bid initiated intrapartum in combination with 400 mg, po bid Lopinavir measured within 72 hrs postpartum. Format: ADME, organism-based. On the set-up: dose 100 mg, route oral. Particulars: female, human, in vivo.
A short description of series [16]: AUC (0 to 12 hrs) in HIV-infected Thai pregnant women at 100 mg, po bid initiated intrapartum in combination with 400 mg, po bid Lopinavir measured within 72 hrs postpartum. Format: ADME, organism-based. Also on record: time < 12 hr, dose 100 mg, route oral. The settings on record: female, human, plasma.
Series [17] can be described thus: Tmax in HIV-infected Thai pregnant women at 100 mg, po bid initiated intrapartum in combination with 400 mg, po bid Lopinavir measured within 72 hrs postpartum. It is filed as ADME, organism-based. Particulars: female, human, in vivo.
Series [18] in a line: Drug level in HIV-infected Thai pregnant women serum at 100 mg, po bid initiated intrapartum in combination with 400 mg, po bid Lopinavir measured 2 hrs post last dose. Format: ADME, organism-based. Particulars: female, human, read-out: Drug uptake.
A short description of series [19]: Drug level in HIV-infected Thai pregnant women serum at 100 mg, po bid initiated intrapartum in combination with 400 mg, po bid Lopinavir measured 4 hrs post last dose. It is filed as ADME, organism-based. Particulars: female, human, read-out: Drug uptake.
A short description of series [20]: Drug level in HIV-infected Thai pregnant women serum at 100 mg, po bid initiated intrapartum in combination with 400 mg, po bid Lopinavir measured 12 hrs post last dose. It is filed as ADME, organism-based. The settings on record: female, human, read-out: Drug uptake.
Series [21] concerns Serum. As to the kind of experiment: Drug level in HIV-infected Thai pregnant women serum before intrapartum initiation of 100 mg, po bid in combination with 400 mg, po bid Lopinavir. Format: ADME, organism-based. Particulars: human, in vivo.
The nature of series [22]: Drug level in HIV-infected Thai pregnant women serum at 100 mg, po bid initiated intrapartum administered for 30 days in combination with 400 mg, po bid Lopinavir measured before administering last dose. Format: ADME, organism-based. Particulars: female, human, read-out: Drug uptake.
Series [23] is described as follows: Drug level in HIV-infected Thai pregnant women serum at 100 mg, po bid initiated intrapartum administered for 30 days in combination with 400 mg, po bid Lopinavir measured 2 hrs post last dose. It is filed as ADME, organism-based. Particulars: female, human, read-out: Drug uptake.
Series [24] in a line: Drug level in HIV-infected Thai pregnant women serum at 100 mg, po bid initiated intrapartum administered for 30 days in combination with 400 mg, po bid Lopinavir measured 4 hrs post last dose. Format: ADME, organism-based. The settings on record: female, human, read-out: Drug uptake.
In series [25] the test system is Serum. In words: Ratio of drug level before intrapartum initiation to 30 days pre-last dose of HIV-infected Thai pregnant women serum at 100 mg, po bid in combination with 400 mg, po bid Lopinavir. Format: ADME, organism-based. Particulars: human, in vivo, 720 h.
The subject of series [26] is Serum. As to the kind of experiment: Ratio of drug level in 2 hrs to 30 days post last dose of HIV-infected Thai pregnant women serum at 100 mg, po bid initiated intrapartum in combination with 400 mg, po bid Lopinavir. Format: ADME, organism-based. Particulars: human, in vivo.
Series [27] relates to Serum. In words: Ratio of drug level in 4 hrs to 30 days post last dose of HIV-infected Thai pregnant women serum at 100 mg, po bid initiated intrapartum in combination with 400 mg, po bid Lopinavir. Format: ADME, organism-based. The settings on record: human, in vivo.

The values below come from ChEMBL document CHEMBL1649180, “Early postpartum pharmacokinetics of lopinavir initiated intrapartum in Thai women” (Antimicrob Agents Chemother, 2009).

Usually Cmax stands for the peak of the concentration-time curve. The term AUC denotes concentration integrated over time. The term Tmax denotes the time from dosing to the highest level.

As to `Cc1cccc(C)c1OCC(=O)N[C@@H](Cc1ccccc1)[C@@H](O)C[C@H](Cc1ccccc1)NC(=O)[C@H](C(C)C)N1CCCNC1=O` [LOPINAVIR], the Cmax in series [1] was determined as 11200 ng/mL. The AUC at 12 h in series [2] turned out to be 99700 ng·h/mL. Also, in series [3], the Tmax was 3.9 h. Also, the values for the concentration at 2 h in series [4] and in series [9] were 10500 ng/mL and 11700 ng/mL, respectively. Also, the values for the concentration at 4 h in [5] and in series [10] were 10800 ng/mL and 13000 ng/mL, respectively. Also, in series [6], the concentration at 12 h is 5180 ng/mL. Besides, the Drug uptake in series [7] turned out to be 6.08 µg/mL; in series [11], 0.66; in [12], 0.85; in [13] it was 0.81. For the same molecule, the concentration at 720 h in series [8] worked out at 9170 ng/mL. Moreover, in [14], the Activity entry is “Non-toxic”.

With `CC(C)c1nc(CN(C)C(=O)N[C@H](C(=O)N[C@@H](Cc2ccccc2)C[C@H](O)[C@H](Cc2ccccc2)NC(=O)OCc2cncs2)C(C)C)cs1` [RITONAVIR], in series [15], the Cmax worked out at 600 ng/mL. Besides, in series [16], the AUC at 12 h came out at 4270 ng·h/mL. The Tmax in [17] is 3.9 h. For the same molecule, the concentration at 2 h in [18] came out at 450 ng/mL; in series [23] it was 610 ng/mL. The figures for the concentration at 4 h in [19] and in series [24] were 580 ng/mL and 810 ng/mL, respectively. Moreover, in series [20], the concentration at 12 h came out at 100 ng/mL. Also, the Drug uptake was determined as 0.16 µg/mL in [21], 0.54 in [25], 0.76 in series [26] and 0.68 in series [27]. In series [22], the concentration at 720 h is 290 ng/mL.
